{"source": "patent US11452781B2", "about": "“Method of preventing and treating type 1 diabetes, allograft rejection and lung fibrosis (by targeting the ATP/P2X7R axis)” (CHILDREN'S MEDICAL CENTER CORPORATION, priority 2013, dated 2022)", "key": {"[1]": {"tested_on": "C57BL/6 mice transplanted with BALB/c islets", "test": "Allogeneic islet transplantation, BALB/c islets into diabetic C57BL/6 mice: graft survival", "assay_type": "in vivo, mouse"}, "[2]": {"tested_on": "C57BL/6 mice transplanted with bm12 hearts", "test": "Chronic cardiac transplant rejection, bm12 donors to C57BL/6 recipients", "assay_type": "in vivo, mouse", "description": "To evaluate the importance of P2X7R signaling and targeting in a clinically relevant setting, the effect of oATP treatment in a model of cardiac transplant chronic rejection (bm12 donors to C57BL/6 recipients) was tested. […] Cardiac allograft pathology was assessed 40 days after transplantation of bm12 hearts into C57BL/6 mice."}, "C57BL/6 splenocytes [3]": {"tested_on": "C57BL/6 splenocytes", "test": "Apoptosis of allo-challenged splenocytes (annexin V, FACS)", "conditions": "oATP, 24 h", "method": "To confirm the data obtained in vivo, the effect of targeting P2X7R in vitro was evaluated using alloimmune-relevant assays. Responder splenocytes from C57BL/6 mice were challenged with irradiated stimulator splenocytes from BALB/c mice. The numbers of cells producing IFN-γ and IL-4 were evaluated in an ELISPOT assay in the presence of increasing concentrations of oATP."}, "[4]": {"tested_on": "C57BL/6 mice transplanted with Bm12 left lung", "test": "Allogeneic orthotopic left lung transplantation, Bm12 into C57BL/6", "assay_type": "in vivo, mouse", "description": "The effect of oATP treatment in a model of allogeneic orthotropic left lung transplantation (Bm12 into C57BL/6) was assessed. Graft rejection and tissue fibrosis occurs early after transplantation and it is complete by day 30. […] CT scan was also performed in untreated or oATP-treated mice. Radiological analysis confirmed the preserved alveolar space and thus the functional integrity of oATP-treated compared to untreated mice (FIG. 8). oATP treatment is a rescue therapy for lung rejection. In a complementary experiment, oATP was tested as a rescue therapy for lung rejection. Bm12 left lung was transplanted into C57BL/6 mice and oATP treatment was started at day 10 after transplantation (when graft infiltration and rejection are evident) and mice follow for 30 days."}, "naïve CD4+ T-cells": {"tested_on": "naïve CD4+ T-cells", "test": "CFSE T-cell proliferation assay, anti-CD3-Ig/anti-CD28-Ig", "assay_type": "cell-based, mouse", "conditions": "100 μM oATP, 4 days (96 hours)", "description": "The effect of P2X7R targeting was tested by treatment with oATP during T-cell activation. […] Similarly, in a T-cell proliferation assay, CFSE-labeled naïve CD4^+ T-cells were stimulated for 4 days with 0.5 μg/ml anti-CD3-Ig and anti-CD28-Ig; treatment with 100 μM oATP diminished CD4^+ T-cell proliferation (FIG. 5B, right panel) compared to controls (FIG. 5B, left panel).\nTo address the mechanisms underlying P2X7R targeting mediated inhibition of cardiac transplant rejection, the inventors analyzed the effect of P2X7R targeting on T-cell activation and Th1/Th17 differentiation in vitro. […] The effect of in vitro P2X7R targeting with oATP during CD4+ T-cell activation was tested. […] Second, in a T-cell proliferation assay, carboxyfluorescein diacetate succinimidyl ester-labeled naïve CD4+ T cells were stimulated for 96 hours with 0.5 μg/mL anti-CD3-Ig and anti-CD28-Ig, and treatment with 100 μM oATP diminished CD4+ T cell proliferation in comparison with controls. […] P2X7R targeting with oATP inhibited Th0 conversion into both Th1 and Th17, as assessed by the percentage of IFN-γ+ and IL-17+ cells, respectively. […] In a Th1/Th17 generation assay, pmY-P2X7R CD4+ T cells seemed to display increased differentiation capacity in comparison with pmY-mock CD4+ T cells, as assessed by T-bet and ROR-γ expression."}, "C57BL/6 splenocytes [5]": {"tested_on": "C57BL/6 splenocytes", "test": "In vitro alloimmune ELISPOT, C57BL/6 responder splenocytes vs irradiated BALB/c splenocytes", "assay_type": "cell-based, mouse", "excerpt": "The effect of increasing doses of oATP on Th1/Th17 cytokine levels was next tested. A dose-dependent response was evident, in which oATP reduced the number of cells producing Th1 cytokines (IFN-γ and IL-2) and Th17 cytokines (IL-6 and IL-17). Because it has been reported that oATP may affect other P2XRs, the inventors made use of the availability of the selective P2X1R inhibitor NF 449 and of the selective P2X3R inhibitor NF 110. C57BL/6 splenocytes were stimulated with irradiated BALB/c splenocytes, and IFN-γ production was evaluated in the presence of these inhibitors."}, "STAT3": {"tested_on": "STAT3", "test": "STAT3 phosphorylation in CD4+ T cells of cardiac-transplanted mice (Western blot)", "assay_type": "in vivo, mouse", "conditions": "7 days after transplantation", "description": "Several key components of T-cell receptor signaling involved in the alloimmune response were examined, and the phosphorylation kinetics following in vitro anti-CD3-Ig/anti-CD28-Ig-mediated CD4+ T-cell activation was evaluated by using the Luminex assay. […] The inventors first confirmed that Colivelin (Col) was able to restore the activation-induced phosphorylation of STAT3 in a dose-dependent manner in oATP-treated CD4+ T cells by Western blotting. […] The effect of oATP and Colivelin on STAT3 phosphorylation and T-cell function was also evaluated following cardiac transplantation."}}, "note": "Several values for one entry are separate records, joined by “and”; a condition that tells them apart may be missing. Equal values may be shown once. Entries after “also recorded” stand apart in the source; their conditions may differ."}
{"substance": "periodate-oxidized ATP [oATP]", "values": [{"measurement": "islet allograft survival (in words)", "setting": "[1]; mouse, in vivo", "value": "prolongs graft survival"}, {"measurement": "mice with long-term graft function at 100 days (of n)", "setting": "[1]; mouse, in vivo", "value": "3 out of 10 and 3 of 10"}, {"measurement": "islet allograft mean survival time (MST)", "setting": "[1]; oATP daily i.p. 14-15 days, rapamycin 0.1 mg/kg 10 days", "value": 22, "unit": "days"}, {"measurement": "cardiac allograft pathology (infiltration, coronaropathy)", "setting": "[2]; 40 days after transplantation", "value": "only mild cellular infiltration and the absence of coronaropathy"}, {"measurement": "IFN-γ-producing cells (ELISPOT)", "setting": "[2]; mouse, in vivo", "value": "reduced number"}, {"measurement": "IL-4-producing cells (ELISPOT)", "setting": "[2]; mouse, in vivo", "value": "increased number"}, {"measurement": "percentage of apoptotic cells (annexin V+)", "setting": "C57BL/6 splenocytes [3]", "value": "no increase"}, {"measurement": "lung function (PawP, compliance) after rescue therapy", "setting": "[4]; oATP started at day 10", "value": "Better functional preservation of lung compliance"}, {"measurement": "radiological and histological analysis after rescue therapy", "setting": "[4]; oATP started at day 10, followed for 30 days", "value": "reversal of graft rejection and no signs of fibrosis; also recorded: preservation of alveolar space"}, {"measurement": "graft fibrosis, inflammation and alveolar spaces", "setting": "[4]; treatment from transplantation", "value": "prevents graft fibrosis; also recorded: highly reduced inflammation and preserved alveolar spaces"}, {"measurement": "CD4+ T-cell proliferation", "setting": "naïve CD4+ T-cells", "value": "diminished; also recorded: suppressed"}, {"measurement": "IL-4 production", "setting": "C57BL/6 splenocytes [5]; increasing concentrations of oATP", "value": "dose-dependent increase"}, {"measurement": "number of cells producing Th1 (IFN-γ, IL-2) and Th17 (IL-6, IL-17) cytokines", "setting": "C57BL/6 splenocytes [5]; increasing doses, dose-dependent", "value": "reduced"}, {"measurement": "phosphorylated STAT3 in CD4+ T cells", "setting": "STAT3", "value": "reduced levels"}]}
